Results: US6750212B2, “Photochemotherapeutic compositions” (PhotoCure AS, priority 1997, dated 2004)

Tests used:
Colon carcinoma WiDr = assay: PDT of WiDr colon carcinoma in nude mice, Curelight broad-band lamp one hour after drug, regression/regrowth time; format: in vivo, Balb/c nu/nu nude mice; conditions: for anti-tumour effect after PDT: Example 5.2, FIG. 5, ALA-methyl ester 273 mg/kg i.p. and/or A1PcS2a 1 mg/kg i.v.; for effect on tumor growth after PDT: Example 5.1, FIG. 4, 5-ALA 250 mg/kg i.p. and/or chlorin e6 1 mg/kg i.v., lamp 161 mW/cm^2 15 minutes, one hour after injection
Protocol: 5-ALA (ALA) and ALA-Methyl ester (ME) were dissolved in isotonic saline to a final concentration of […].
ALA-Butyl ester (BU) was dissolved in a small amouont of ethanol and diluted further in isotonic saline to a final concentration of […] (final ethanol concentration was 2% v/v).
Aluminium phthalocyanine di-sulfonate (A1PcS2a) (Porphyrin Products Inc.) dissolved in a few drops of 1M NaOH and diluted in phosphate buffered saline (PBS, 10 MM Na-phosphate pH 7.4/150 mM NaCl) to a final concentration of 0.25 mg/ml.
Chlorin e6 (e6)(Porphyrin Products Inc.) was dissolved in PBS to a final concentration of 0.25 mg/ml.
ALA, ALA methyl ester or ALA butyl ester were administered intraperitoneally (i.p.), whereas the sensitizers were injected intravenously (i.v.).
All animals received the same amount of ALA (1.5 mmole), either as the free acid or in the form of an ester. […]
Suspensions of the human tumour (Colon carcinoma WiDr-propagated by serial transplantation) was prepared from non-necrotic areas of the respective tumours and injected (20 μl) into the right hind foot of each mouse. […] Injection volume: 100 μl per mouse (approx. 25 g bodyweight).
Illumination occurred one hour after injection of the drugs instead of three hours that was used in previous examples. In contrast to previous examples, a broad-band lamp that covers the range of 600 to 700 nm (Curelight, patent applied for by PhotoCure AS) was used instead of the laser. This was because the light should cover combinations of phthalocyanines (absorption maximum 670 nm) and protoporphyrin IX (absorption maximum 630 nm) induced by ALA or ALA-esters, respectively.
The average tumour volume in each group (mean ±SD) was calculated and plotted against time. The experiment was terminated when the tumor volume had reached 4-5 times the initial volume.
One hour after injection of the drugs the mice were irradiated using the Curelight broad-band lamp (161 mW/cm^2 for 15 minutes-144.9 J/cm^2).
Responses of the tumors were evaluated as regression/regrowth time. The size of the tumours were measured every second day and the tumour volumes calculated according to the formula in Example 2. The mice were sacrificed when the tumour volume had reached 5 times the initial volume. For each time point, the mean (and the standard deviation of the mean) tumour volume (n=4-5) were calculated. The data were then submitted to statistical analysis (Q-test/90% confidence interval) and extreme values were rejected.

[1] = tested on: WiDr human colonic carcinoma; assay: PDT of WiDr human colonic carcinoma in nude mice, laser light 3 hours after drug, tumor regression/regrowth time; format: in vivo, Balb/c nu/nu nude mice
Description: 5-aminolevulinic acid (ALA) hydrochloride was purchased from Sigma Chemical Company (St. Louis, Mo.). ALA was freshly dissolved in isotonic saline and given intraperitoneally to mice. PHOTOFRIN® vascular stroma-localizing photosensitizer was obtained from Quadra Logic Technologies (Vancouver, Canada). The solution of PHOTOFRIN® vascular stroma-localizing photosensitizer was made up in isotonic solution containing 5% dextrose and given to mice intravenously via the tail vein.
Female Balb/c nu/nu nude mice were obtained from The Animal Department, The Norwegian Radium Hospital, housed 10 per cage and kept under specific-pathogen-free conditions. The mice were 6 weeks old and weighed 20-22 g when the experiments started. The WiDr human colonic carcinoma, used in the present study, was propagated by serial transplantation into the nude mice. Non-necrotic tumor material for inoculation was obtained by sterile dissection of large flange tumors from syngeneic mice. Macroscopically viable tumor tissue was gently minced with a pair of scissors and forced repeatedly through sterile needles of diminishing sizes from 19-gauge to 25-gauge to make a tumor-tissue suspension, 0.02 ml of which was then injected into the dorsal side of the right hind foot of each mouse. The rate of successful transplantations was nearly 100% in the present experiments. […] The tumor volume was calculated using the following formula: […]
where D1, D2 and D3 are three orthogonal diameters of the tumors which were measured daily by a caliper.
Unanesthetized mice were fixed in Lucite jigs specially designed for irradiation. The tumor area was exposed to red light from a dicyanomethylane-2-methyl-6-(p-dimethylaminostyryl)-4 H-pyran (DCM) dye laser pumped by a 5W argon ion laser (Spectra Physics, 164). The tuning range was 610-690 nm. The dye laser was tuned at 632 for both ALA-derived PpIX and PHOTOFRIN®vascular stroma-localizing photosensitizer, the tuning being controlled by means of a monochromator. […]
Responses of the treated tumors were evaluated as described previously.

[2] = tested on: Human rectal papillary villous adenomas; assay: Fluorescence localization in human rectal papillary villous adenomas by fluorescence microscopy; format: in vivo; conditions: 4.5 hours after oral administration of 60 mg/kg ALA; FIG. 3 B
Protocol: Human rectal papillary villous adenomas from 2 patients with severe dysplasia and with a diarrheal history for some months before diagnosis were sampled 44 hours after intravenous injection of 2 mg/kg body weight PHOTOFRIN® vascular stroma-localizing photosensitizer or 4.5 hours after oral administration of 60 mg/kg ALA. The samples were immediately immersed in liquid nitrogen, then mounted in medium (Tissue Tek II embedding compound: BDH, Poole, UK). Frozen tissue sections were cut with a cryostat to a thickness of 8 Am and mounted on clean glass slides. The fluorescence localization patterns of ALA-induced PpIX and PHOTOFRIN were studied by fluorescence microscopy. The fluorescence microscopy was carried out with an Axioplan microscope (Zeiss, Germany). The filter combination comprised a 390-440 nm excitation filter, a 460 nm beam splitter and a >600 nm emission filter. The fluorescence images were recorded by a CCD camera (Astromed CCD 3200, Cambridge, UK) and an image processing unit (Astromed/Visilog, PC 486DX2 66 MHz VL).

[3] = Example 5.5, FIG. 8, 5-ALA methyl ester 273 mg/kg i.p. and/or A1PcS4 1 mg/kg i.v., lamp one hour after injection
[4] = Example 3, FIG. 2, ALA 250 mg/kg i.p. (632 nm) and/or m-THPC 75 μg/kg i.v. (652 nm), laser light 3 hours after drug
[5] = Example 5.4, FIG. 7, 5-ALA butyl ester 338 mg/kg i.p. and/or A1PcS2a 1 mg/kg i.v., lamp one hour after injection

COC(=O)CCC(=O)CN [ALA-methyl ester, 5-ALA methyl ester]
anti-tumour effect after PDT (Colon carcinoma WiDr; lamp one hour after injection): had no anti-tumour effect | effect on tumour growth after PDT (Colon carcinoma WiDr; [3]): did not have any effect on tumor growth

NCC(=O)CCC(=O)O [ALA, 5-aminolevulinic acid]
effect on tumor growth after PDT (Colon carcinoma WiDr): had no effect | effect on tumor growth after PDT ([1]; Example 2, FIG. 1, ALA 250 mg/kg i.p. and/or PHOTOFRIN 1 mg/kg i.v., laser 632 nm, 150 mW/cm^2 for 15 min, 3 hours after drug): had an effect on the tumor growth | effect on tumor growth after PDT [1, 4]: had an effect on the tumor growth | fluorescence localization of ALA-induced porphyrins in tumor tissue [2]: almost entirely localized within the tumor cells

C=Cc1c(C)c2cc3nc(c(CC(=O)O)c4[nH]c(cc5nc(cc1[nH]2)C(C)=C5CC)c(C)c4C(=O)O)[C@@H](CCC(=O)O)[C@@H]3C [chlorin e6]
effect on tumor growth after PDT (Colon carcinoma WiDr): had no effect

Aluminium phthalocyanine di-sulfonate [A1PcS2a]
anti-tumour effect after PDT (Colon carcinoma WiDr; lamp one hour after injection): a slight effect | effect on tumour growth after PDT (Colon carcinoma WiDr; [5]): immediate effect | time to 4× initial tumour volume (Colon carcinoma WiDr; Example 5.4, FIG. 7, A1PcS2a 1 mg/kg i.v. alone, lamp one hour after injection): ≤ 14 days

CCCCOC(=O)CCC(=O)CN [ALA butyl ester, 5-ALA butyl ester]
time for tumours to reach 4 times the initial volume (Colon carcinoma WiDr; Example 5.3, FIG. 6, 5-ALA butyl ester 338 mg/kg i.p. alone, lamp one hour after injection): 11 days | effect on tumour growth after PDT (Colon carcinoma WiDr; [5]): almost no effect

Oc1cccc(-c2c3nc(c(-c4cccc(O)c4)c4ccc([nH]4)c(-c4cccc(O)c4)c4nc(c(-c5cccc(O)c5)c5ccc2[nH]5)CC4)C=C3)c1 [m-THPC, tetra(meso-hydroxyphenyl)chlorin]
effect on tumor growth after PDT [1, 4]: no effect

Aluminium phthalocyanine tetra-sulfonate [A1PcS4]
effect on tumour growth after PDT (Colon carcinoma WiDr; Example 5.3, FIG. 6, 5-ALA butyl ester 338 mg/kg i.p. and/or A1PcS4 1 mg/kg i.v., lamp one hour after injection): moderate effect on tumour growth | effect on tumour growth after PDT (Colon carcinoma WiDr; Example 5.3, FIG. 6, high dose A1PcS4 5 mg/kg i.v. alone, lamp one hour after injection): strongly delayed growth | effect on tumour growth after PDT (Colon carcinoma WiDr; [3]): intermediate effect
